Data: patent US20230192617A1, “AZABICYCLIC(THIO)AMIDES AS FUNGICIDAL COMPOUNDS” (Bayer CropScience Aktiengesellschaft, priority 2020, published 2023)

Key:
[1] = Measurement of Log P values by HPLC on reversed phase columns (EEC directive 79/831 Annex V.A8); assay type: physicochemical; conditions: reversed phase HPLC column, method [a]: LC-UV, acidic range, 0.1% formic acid in water and acetonitrile as eluent
In short: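 Log P derived from retention on reversed-phase columns (EEC directive 79/831 Annex V.A8), LC-UV, acetonitrile gradient 10% to 95% against water containing 0.1% formic acid, 0.001 M ammonium acetate, or 0.1% phosphoric acid; several values per method separated by "+".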

[2] = tested on: Botrytis cinerea; assay: In vivo preventive test on Botrytis cinerea (grey mould); conditions: 500 ppm of active ingredient, preventive spray on gherkin or cabbage, evaluated 4 to 5 days after inoculation, read-out: efficacy
In short: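 Preventive spray on cabbage or gherkin seedlings, with compound formulated in DMSO/acetone/Tween 80 and water-diluted, preceded spore inoculation by 24 hours. Cabbage was held 4 to 5 days at 20° C., 100% relative humidity; gherkin 4 to 5 days at 17° C., 90% relative humidity.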

[3] = tested on: Pyrenophora teres; assay: In vivo preventive test on Pyrenophora teres (net blotch on barley); conditions: 240 h, 500 ppm of active ingredient, preventive spray on barley, evaluated 10 days after inoculation, read-out: efficacy
In short: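 Net blotch spores were sprayed onto barley leaves one day after foliar treatment with water-diluted DMSO/acetone/Tween 80 formulations (solvent-only controls). Plants were kept at 20° C: first 48 hours at 100% relative humidity, then 8 days at 70-80%.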

[4] = tested on: Sphaerotheca fuliginea; assay: In vivo preventive test on Sphaerotheca fuliginea (powdery mildew on cucurbits); conditions: Podosphaera fuliginea, 192 h; 500 ppm of active ingredient; preventive spray on gherkin; evaluated 8 days after inoculation; read-out: efficacy
In short: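 This is a preventive spray test on gherkin seedlings, with compound formulated in DMSO/acetone/Tween 80 in water and solvent-only controls. Spore inoculation followed one day after treatment. Incubation lasted 8 days at 20 °C, 70–80% RH.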

[5] = tested on: Alternaria alternata; assay: Alternaria alternata in vitro cell test; assay type: cell-based; conditions: 120 h, 20 ppm of active ingredient, liquid culture, 5 days incubation, spectrometric measurement of mycelium growth, read-out: efficacy (inhibition of fungal growth)
In short: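 Spectrometric readout of mycelial growth after 5-day incubation gauged compound effects on spore germination and growth of A. alternata in liquid medium. Compounds were delivered in DMSO at ≤1% final. Absorbance was compared with untreated controls to give inhibition.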

[6] = tested on: Colletotrichum lindemuthianum; assay: B-8. Colletotrichum lindemuthianum in vitro cell test; assay type: cell-based; conditions: 144 h, 20 ppm of active ingredient, 6 days incubation, liquid culture, absorbance, read-out: efficacy (inhibition of fungal growth)
In short: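 Liquid-culture germination/growth test: compounds in ≤1% final DMSO were added to spore-containing medium. Fungal growth was quantified spectrophotometrically after 6 days of incubation and expressed as inhibition versus untreated controls.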

[7] = tested on: Pyrenophora teres; assay: B-10. Pyrenophora teres in vitro cell test; assay type: cell-based; conditions: 144 h, 20 ppm of active ingredient, 6 days incubation, liquid culture, absorbance, read-out: efficacy (inhibition of fungal growth)
In short: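 Liquid-culture assay on a P. teres spore suspension with compounds added to the medium from DMSO solutions, final DMSO ≤1%. Mycelium growth read spectrometrically after 6 days. Inhibition calculated from absorbance against untreated control wells.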

[8] = tested on: Botrytis cinerea; assay: B-11. Botrytis cinerea in vitro cell test; assay type: cell-based; conditions: 144 h, 20 ppm of active ingredient, 6 days incubation, liquid culture, absorbance, read-out: efficacy (inhibition of fungal growth)
In short: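 B. cinerea spores were grown in liquid culture with compound (DMSO ≤1% final). Mycelium growth was measured spectrometrically after 6 days, with inhibition taken as absorbance relative to untreated control wells.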

Structure (SMILES): Cc1ccc(C(F)(F)CNC(=O)c2c(Oc3cccc(Br)c3)nnc3ccccc23)c(C)c1 [I-216]
- chromatographic logP [1]: 4.38
- pest or weed control at 500 ppm [2]: 90 to 100%
- pest or weed control at 500 ppm [3]: 70 to 79%
- pest or weed control at 500 ppm [4]: 90 to 100%
- inhibition at 20 ppm [5]: 90 to 100%
- inhibition at 20 ppm [6]: 90 to 100%
- inhibition at 20 ppm [7]: 90 to 100%
- inhibition at 20 ppm [8]: 90 to 100%

Structure (SMILES): O=C(NCC(F)c1ccc(Cl)cc1Cl)c1c(Oc2cccc(C(F)(F)F)c2)nnc2c1CCCC2 (stereo not drawn) [I-118]
- chromatographic logP [1]: 4.05
- pest or weed control at 500 ppm [2]: 90 to 100%
- pest or weed control at 500 ppm [3]: 90 to 100%
- pest or weed control at 500 ppm [4]: 90 to 100%
- inhibition at 20 ppm [5]: 90 to 100%
- inhibition at 20 ppm [6]: 90 to 100%
- inhibition at 20 ppm [7]: 90 to 100%
- inhibition at 20 ppm [8]: 90 to 100%

Structure (SMILES): Cc1cc(Br)ccc1C(F)(F)CNC(=O)c1c(Oc2cccc(Cl)c2)nnc2c1CCCC2 [I-151]
- chromatographic logP [1]: 4.17
- pest or weed control at 500 ppm [2]: 90 to 100%
- pest or weed control at 500 ppm [3]: 80 to 89%
- pest or weed control at 500 ppm [4]: 90 to 100%
- inhibition at 20 ppm [5]: 90 to 100%
- inhibition at 20 ppm [6]: 90 to 100%
- inhibition at 20 ppm [7]: 90 to 100%
- inhibition at 20 ppm [8]: 90 to 100%

Structure (SMILES): O=C(NCC(F)c1ccc(Cl)cc1Cl)c1c(Oc2cccc(C(F)(F)F)c2)nnc2c1CCC2 (stereo not drawn) [I-186]
- chromatographic logP [1]: 4
- pest or weed control at 500 ppm [2]: 90 to 100%
- pest or weed control at 500 ppm [3]: 90 to 100%
- pest or weed control at 500 ppm [4]: 90 to 100%
- inhibition at 20 ppm [5]: 90 to 100%
- inhibition at 20 ppm [6]: 90 to 100%
- inhibition at 20 ppm [7]: 90 to 100%
- inhibition at 20 ppm [8]: 90 to 100%

Structure (SMILES): Cc1ccc(C(F)(F)CNC(=O)c2c(Oc3cccc(Br)c3F)nnc3ccccc23)c(C)c1 [I-227]
- chromatographic logP [1]: 4.4
- pest or weed control at 500 ppm [2]: 90 to 100%
- pest or weed control at 500 ppm [3]: 70 to 79%
- pest or weed control at 500 ppm [4]: 90 to 100%
- inhibition at 20 ppm [5]: 90 to 100%
- inhibition at 20 ppm [6]: 90 to 100%
- inhibition at 20 ppm [7]: 90 to 100%
- inhibition at 20 ppm [8]: 90 to 100%

Structure (SMILES): O=C(NCC(F)(F)c1ccc(Br)cc1Cl)c1c(Oc2cccc(C(F)(F)F)c2)nnc2c1CCC2 [I-212]
- chromatographic logP [1]: 4.17
- pest or weed control at 500 ppm [2]: 90 to 100%
- pest or weed control at 500 ppm [3]: 90 to 100%
- pest or weed control at 500 ppm [4]: 90 to 100%
- inhibition at 20 ppm [5]: 90 to 100%
- inhibition at 20 ppm [6]: 90 to 100%
- inhibition at 20 ppm [7]: 90 to 100%
- inhibition at 20 ppm [8]: 90 to 100%
